According to publication PMC6222509, “Dibasic Derivatives of Phenylcarbamic Acid against Mycobacterial Strains: Old Drugs and New Tricks?” (Molecules : A Journal of Synthetic Chemistry and Natural …, 2018):
In brackets after ≈: the same amount, converted by molar mass. Where two headings read alike, the source gives them in different places.

Legend:
[1] = lipophilicity by isocratic RP-HPLC (log k, k, log kw, S); type: physicochemical; settings: for log kw: extrapolated to 100% water from log k versus ϕM; for S (slope): slope of log k versus ϕM regression
From the text: Octadecyl-functionalized silica gel was currently used as a stationary phase (SPh) and a […] of two solvents at different volume ratios modified retention properties of the SPh. Liquid binary mixtures of methanol (MeOH) with water were employed as mobile phases (MPhs) in the isocratic RP-HPLC. The MeOH modifier was preferred because of similarity of both observed and extrapolated lipophilicity parameters with the ones determined in the octan-1-ol/water partition system, considering also sensitivity to H-bond donor properties of investigated compounds [41].
The modifier was applied in different volume concentrations, which varied from […] (v/v) with 5% increments. This interval was chosen due to very high lipophilicity of investigated salts. Practically, lower volume concentration of MeOH, i.e., less than 85% (v/v) in used MPhs, caused uncertainty of retention times (tr) due to notable peaks broadening, especially within subsets 1i–l and 1m–p. […] The highest tr parameters were found for the molecules 1k (tr = 47.108 min) and 1l (tr = 70.012 min) in the MPh containing 85% proportion (v/v) of MeOH (Table 2).
According to the authors’ opinions based on systematic scientific literature survey, a current research paper was the first, which aimed the log kw parameters of 2-/3-alkoxyphenylcarbamic acid derivatives containing two centers of protonation. The log kw values were extrapolated from intercepts of a relationship between log k and volume fraction of the MPh modifier (ϕM) using the Snyder–Soczewiński linear solvent strength model. The relationship was justified by R > 0.9900, Adj. R^2 > 0.9750 as well as F > 180.00 for calculation of particular log kw parameters (Table 3).
The HPLC separation module Waters e2695 equipped with a Waters 2996 PDA Detector (Waters Corp., Milford, MA, USA) and chromatographic column Symmetry C18 × 5 μm, 4.6 × 250 mm, Part No. W21751W016 (Waters Corp.) were used for estimation of lipophilic properties of the compounds 1a–p at 21 °C.
Isocratic elution was carried out using mobile phases consisting of methanol p.a. (MeOH; Honeywell, Paris, France) and purified water in various volume ratios (80:20, 85:15, 90:10, 95:5 (v/v) and pure MeOH, respectively). Distilled water (CentralChem, Bratislava, Slovak Republic) was purified by the Aquinity2 P10 ultra-pure water system for production of ultra-pure water with an integrated 10 L permeate tank (membraPure, Hennigsdorf, Germany).
Total flow of the column was 1.0 mL/min, injection volume was 4 μL and column temperature was set to 40 °C. The detection wavelengths varying from 236 nm to 238 nm were chosen for current experimental procedures.
Lipophilicity of the compounds 1a–p was determined by reversed-phase high-performance liquid chromatography (RP-HPLC). Methanol (MeOH)/water mobile phases with varying volume ratio of the organic modifier and water (80:20, 85:15, 90:10, 95:5 (v/v) and pure MeOH, respectively) were chosen.
A methanolic solution of potassium iodine was used for dead time (td) determination. Retention factors (capacity factors; k) were calculated according to Equation (17):k = (tr− td)/td(17) where tr was retention time of a solute (in min), the td parameter denoted dead time of potassium iodine, an unretained analyte (in min).
The observed retention (tr) and dead (td) times were means of three independent determinations. Average td values of potassium iodine in used MPhs were as follows: 2.237 min (MeOH/water ratio (v/v) was 80:20), 2.245 min (85:15), 2.245 min (90:10), 2.228 min (95:5) and 2.210 min (pure MeOH), respectively. […]

[2] = system: M. smegmatis ATCC 700084 (MS); experiment: in vitro antimycobacterial MIC, broth dilution micromethod in Middlebrook 7H9; type: cell-based, Mycobacterium smegmatis; settings: Mycolicibacterium smegmatis, ATCC700084, 72 h
[3] = mobile phase MeOH/water 80:20 (v/v)
[4] = mobile phase MeOH/water 85:15 (v/v)
[5] = mobile phase MeOH/water 90:10 (v/v)
[6] = mobile phase MeOH/water 95:5 (v/v)
[7] = read-out: MIC MS 3-d, 3-day cultivation, 37 °C
[8] = 3-day cultivation, 37 °C, read-out: MIC MS 3-d

SMILES | log kw [1] | k (retention factor) [1, 3] | log k [1, 3] | k (retention factor) [1, 4] | log k [1, 4] | k (retention factor) [1, 5] | log k [1, 5] | k (retention factor) [1, 6] | log k [1, 6] | k (retention factor) ([1]; mobile phase pure MeOH) | log k ([1]; mobile phase pure MeOH) | S (slope) [1] | MIC [2, 7] | MIC [2, 8]
CCCCOc1ccccc1NC(=O)OC(CN(CCC)CCC)CN1CCCC1 (stereo not shown) [1a] | 3.7688 | 5.2060 | 0.7165 | 3.7636 | 0.5756 | 2.4877 | 0.3958 | 1.5878 | 0.2008 | 0.9114 | −0.0403 | 3.7768 | 213 µM (≈ 89.4 µg/mL) | –
CCCCCOc1ccccc1NC(=O)OC(CN(CCC)CCC)CN1CCCC1 (stereo not shown) [1b] | 4.0454 | 6.6904 | 0.8254 | 4.6302 | 0.6656 | 3.2092 | 0.5064 | 1.9235 | 0.2841 | 1.0479 | 0.0203 | 3.9834 | – | 104 µM (≈ 45.1 µg/mL)
CCCCCCOc1ccccc1NC(=O)OC(CN(CCC)CCC)CN1CCCC1 (stereo not shown) [1c] | 4.6049 | 10.4858 | 1.0206 | 6.5494 | 0.8162 | 4.0300 | 0.6053 | 2.3351 | 0.3683 | 1.3449 | 0.1287 | 4.4634 | – | 51 µM (≈ 22.8 µg/mL)
CCCCCCCOc1ccccc1NC(=O)OC(CN(CCC)CCC)CN1CCCC1.Cl.Cl (stereo not shown) [1d, 1-[2-[({[2-(heptyl-oxy)phenyl]amino}carbonyl)oxy]-3-(dipropylammonio)propyl]pyrrolidinium dichloride] | 4.9487 | 12.8588 | 1.1092 | 7.7304 | 0.8882 | 5.0373 | 0.7022 | 2.5421 | 0.4052 | 1.4365 | 0.1573 | 4.7736 | 24.9 µM | –
CCCCOc1cccc(NC(=O)OC(CN(CCC)CCC)CN2CCCC2)c1 (stereo not shown) [1e] | 4.0258 | 3.6174 | 0.5584 | 2.0811 | 0.3183 | 1.4054 | 0.1478 | 0.7155 | −0.1454 | 0.5063 | −0.2956 | 4.3434 | – | 16.2 µM (≈ 6.8 µg/mL)
CCCCCOc1cccc(NC(=O)OC(CN(CCC)CCC)CN2CCCC2)c1.Cl.Cl (stereo not shown) [1f, 1-[2-[({[3-(pentyloxy)phenyl]amino}carbonyl)oxy]-3-(dipropylammonio)propyl]-pyrrolidinium dichloride] | 4.6722 | 4.5436 | 0.6574 | 3.0981 | 0.4911 | 1.7972 | 0.2546 | 0.8052 | −0.0941 | 0.5113 | −0.2913 | 4.9652 | 15.8 µM | –
CCCCCCOc1cccc(NC(=O)OC(CN(CCC)CCC)CN2CCCC2)c1 (stereo not shown) [1g] | 4.9446 | 6.6896 | 0.8254 | 4.0776 | 0.6104 | 2.3329 | 0.3679 | 1.3128 | 0.1182 | 0.6213 | −0.2067 | 5.1128 | – | 15.4 µM (≈ 6.89 µg/mL)
